The values below come from patent US9469615B2, “Quinoxalines and AZA-quinoxalines as CRTH2 receptor modulators” (Merck Sharp & Dohme Corp., priority 2010, dated 2016).

The assay addresses T1, hCRTH2 (Homo sapiens, UniProt Q9Y5Y4).
T1 construct: expressed in transfected cells; host or cells: HEK (human embryonic kidney) cells expressing hCRTH2; membrane preparation
T1 sequence (Q9Y5Y4 1-395): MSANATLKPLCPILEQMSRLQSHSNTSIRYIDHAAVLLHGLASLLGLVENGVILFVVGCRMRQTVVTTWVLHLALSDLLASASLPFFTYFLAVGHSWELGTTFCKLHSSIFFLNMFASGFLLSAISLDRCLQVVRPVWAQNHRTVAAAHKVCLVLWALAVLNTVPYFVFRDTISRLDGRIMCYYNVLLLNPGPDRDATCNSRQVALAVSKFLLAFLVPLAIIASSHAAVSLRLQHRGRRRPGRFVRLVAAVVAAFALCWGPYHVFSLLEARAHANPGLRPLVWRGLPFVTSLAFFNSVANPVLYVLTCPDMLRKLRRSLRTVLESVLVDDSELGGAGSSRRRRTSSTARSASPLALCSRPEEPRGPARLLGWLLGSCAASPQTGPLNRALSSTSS
As to the kind of experiment: Radioligand binding assay ([3H]PGD2 competition, HEK-hCRTH2 membranes). The essentials: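 Competition binding with 3.0 nM [3H]PGD2 and 8-20 μg HEK-hCRTH2 membrane protein in 50 mM Tris-HCl pH 7.4, 1 mM EDTA, 2 mM MnCl2, 1% Me2SO, 60 min at room temperature. Nonspecific binding defined with 10 μM PGD2; bound radioactivity counted after filtration.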

Setting [1] is: [3H]PGD2 binding, rated A-E (Table A).

One may read the Ki as a dissociation constant, usually derived from enzyme kinetics or from competition with a known ligand. A lower Ki goes with a stronger hold on the target. Under setting [1], `Cc1cn(C2CCN(C(=O)c3ccc4nc(-c5ccccc5)c(CCCCC(=O)O)nc4c3)CC2)nn1` [15BQ, 5-(7-{[4-(4-methyl-1H-1,2-3-triazol-1-yl)piperidin-1-yl]carbonyl}-3-phenylquinoxalin-2-yl) pentanoic acid] displayed a Ki of 2.1 to 20 nM.

As for `O=C(O)CCCCc1nc2cc(C(=O)N[C@@H](c3ccc(F)cc3)C(F)(F)F)ccc2nc1-c1ccc(F)cc1` [compound 138, 3-(4-fluorophenyl)-7-[[[2,2,2-trifluoro-1(S)-(4-fluorophenyl)ethyl]amino]carbonyl]-2-quinoxalinepentanoic acid], the Ki under setting [1] is 2.1 to 20 nM.

The compound `O=C(O)CCCCc1nc2cc(C(=O)NCc3ccc(Cl)cc3)ccc2nc1-c1ccc(Cl)cc1` [compound 16] returned a Ki under setting [1] of 0.1 to 2 nM.

The compound `O=C(O)CCCCc1nc2cc(C(=O)N3CC[C@@H](c4ccccc4)C3)c(F)cc2nc1-c1ccccc1` [24i, 6-fluoro-3-phenyl-7-[(3(S)-phenyl-1-pyrrolidinyl)carbonyl]-2-quinoxalinepentanoic acid] registered a Ki under setting [1] of 2.1 to 20 nM.

For `Cc1nonc1C1CCCN1C(=O)c1ccc2nc(-c3ccc(Cl)cc3)c(CCCCC(=O)O)nc2c1` (stereo not drawn) [compound 652, 5-(3-(4-chlorophenyl)-7-(2-(4-methyl-1,2,5-oxadiazol-3-yl)pyrrolidine-1-carbonyl)quinoxalin-2-yl)pentanoic acid], the Ki ([3H]PGD2 competition, Table B) lay within 2.1 to 20 nM.

Under “[3H]PGD2 competition, Table B”, `O=C(O)C1CCC(Cc2nc3cc(C(=O)N4CC(c5ccc(F)c(F)c5)C4)ccc3nc2-c2ccc(Cl)cc2)C1` (stereo not drawn) [compound 398, 3-((3-(4-chlorophenyl)-7-(3-(3,4-difluorophenyl)azetidine-1-carbonyl)quinoxalin-2-yl)methyl)cyclopentane-carboxylic acid] registered a Ki of 2.1 to 20 nM.

For `O=C(O)CCCNc1nc2cc(C(=O)N[C@@H]3CCCc4cc(F)ccc43)ccc2nc1-c1ccccc1` [44E, (R)-4-((7-((6-fluoro-1,2,3,4-tetrahydronaphthalen-1-yl)carbamoyl)-3-phenylquinoxalin-2-yl)amino)butanoic acid], the Ki under setting [1] lay in the range of 2.1 to 20 nM.

Under setting [1], `O=C(O)CCCCc1nc2cc(C(=O)NCc3ccc(C(F)(F)F)nc3)ccc2nc1-c1ccc(C(F)(F)F)cc1` [3AF, 3-[4-(trifluoromethyl)phenyl]-7-[[[[6-(trifluoromethyl)-3-pyridinyl]methyl]amino]-carbonyl]-2-quinoxaline-pentanoic acid] came in with a Ki of 2.1 to 20 nM.

Turning to `C[C@@H]1CN(c2ccc(Cl)cc2)CCN1C(=O)c1ccc2nc(-c3ccc(Cl)cc3)c(CCCCC(=O)O)nc2c1` [compound 539, (R)-5-(3-(4-chlorophenyl)-7-(4-(4-chlorophenyl)-2-methylpiperazine-1-carbonyl)quinoxalin-2-yl)pentanoic acid], the Ki ([3H]PGD2 competition, Table B) lay in the range of 2.1 to 20 nM.

`CC(CCc1nc2cc(C(=O)N3CC(c4ccccc4)C3)ccc2nc1-c1ccc(Cl)cc1)CC(=O)O` (stereo not drawn) [17F, 3-(4-chlorophenyl)-beta-methyl-7-[(3-phenyl-1-azetidinyl)carbonyl]-2-quinoxalinepentanoic acid] returned an inhibition constant Ki under setting [1] of 0.1 to 2 nM.

For `O=C(O)CCCCc1nc2cc(C(=O)N[C@H]3CCOc4ccccc43)ccc2nc1-c1ccc(F)cc1` [compound 492, (S)-5-(7-(chroman-4-ylcarbamoyl)-3-(4-fluorophenyl)quinoxalin-2-yl)pentanoic acid], where the note is “[3H]PGD2 competition, Table B”, the Ki fell in the range of 2.1 to 20 nM.

`CN(Cc1ccccc1)C(=O)c1ccc2nc(-c3ccccc3)c(OCCCC(=O)O)nc2c1` [10E, 4-({7-[benzyl(methyl)carbamoyl]-3-phenylquinoxalin-2-yl}oxy)butanoic acid]: the Ki under setting [1] was 0.1 to 2 nM.

Consider `O=C(O)CCCCc1nc2cc(C(=O)N3CCC(c4ccccc4)C3)ccc2nc1-c1ccc(F)cc1F` (stereo not drawn) [26H, 3-(2,4-difluorophenyl)-7-[(3-phenyl-1-pyrrolidinyl)carbonyl]-2-quinoxalinepentanoic acid], for which the Ki under setting [1] was in the range of 2.1 to 20 nM.

Take `Cn1cnc(C2CCN(C(=O)c3ccc4nc(-c5ccc(Cl)cc5)c(CCCCC(=O)O)nc4c3)CC2)c1` [compound 346, 5-(3-(4-chlorophenyl)-7-(4-(1-methyl-1H-imidazol-4-yl)piperidine-1-carbonyl)quinoxalin-2-yl)pentanoic acid]: for the setting “[3H]PGD2 competition, Table B”, the Ki was in the range of 2.1 to 20 nM.

Regarding `O=C(O)Cc1cccc(CCc2nc3cc(C(=O)N4CC(c5ccccc5)C4)ccc3nc2-c2ccc(F)cc2)c1` [compound 200, 3-[2-[3-(4-fluorophenyl)-7-[(3-phenyl-1-azetidinyl)carbonyl]-2-quinoxalinyl]ethyl] benzeneacetic acid], the Ki under setting [1] is 2.1 to 20 nM.

Under “[3H]PGD2 competition, Table B”, `C[C@@H](NC(=O)c1ccc2nc(-c3cccc(C#N)c3)c(CCCCC(=O)O)nc2c1)c1ccc(F)cc1` [compound 410, (R)-5-(3-(3-cyanophenyl)-7-((1-(4-fluorophenyl)ethyl)carbamoyl)quinoxalin-2-yl)pentanoic acid] displayed a Ki of 20.1 to 200 nM.

As for `CC(CCCc1nc2cc(C(=O)N[C@H](C)c3ccc(Cl)cc3)ccc2nc1-c1ccccc1)C(=O)O` (stereo partly drawn) [compound 460, 5-(7-(((R)-1-(4-chlorophenyl)ethyl)carbamoyl)-3-3-phenylquinoxalin-2-yl)-2-methylpentanoic acid], the Ki ([3H]PGD2 competition, Table B) was in the range of 2.1 to 20 nM.

As to `O=C(O)CCCCc1nc2cc(C(=O)N3CC(c4nc5ccccc5o4)C3)ccc2nc1-c1ccc(F)cc1` [compound 248, 7-[[3-(2-benzoxazolyl)-1-azetidinyl]carbonyl]-3-(4-fluorophenyl)-2-quinoxalinepentanoic acid], the Ki under setting [1] is 2.1 to 20 nM.

With `CCC(=O)c1ccc2nc(-c3ccccc3)c(CCCCC(=O)O)nc2c1` [compound 6, 7-(1-oxopropyl)-3-phenyl-2-quinoxalinepentanoic acid], the Ki under setting [1] is 0.1 to 2 nM.

Consider `O=C(O)CCCCc1nc2cc(C(=O)N3CCN(c4c(Cl)cncc4Cl)CC3)ccc2nc1-c1ccccc1` [compound 304, 5-(7-(4-(3,5-dichloropyridin-4-yl)piperazine-1-carbonyl)-3-phenylquinoxalin-2-yl)pentanoic acid], for which the Ki ([3H]PGD2 competition, Table B) lay in the range of 2.1 to 20 nM.

As for `O=C(O)CCCCc1nc2cc(C(=O)N3CCN(c4ccccc4)C(=O)C3)ccc2nc1-c1ccc(Cl)cc1` [compound 553, 5-(3-(4-chlorophenyl)-7-(3-oxo-4-phenylpiperazine-1-carbonyl)quinoxalin-2-yl)pentanoic acid], the Ki ([3H]PGD2 competition, Table B) was 2.1 to 20 nM.

`CC(CCc1nc2cc(C(=O)N3CC[C@@H](c4ccccc4)C3)ccc2nc1-c1ccc(Cl)cc1)CC(=O)O` (stereo partly drawn) [17K, 3-(4-chlorophenyl)-beta-methyl-7-[(3(S)-phenyl-1-pyrrolidinyl)carbonyl]-2-quinoxalinepentanoic acid]: the Ki under setting [1] fell in the range of 0.1 to 2 nM.

`O=C(O)CCCCc1nc2cc(C(=O)N3CCC(Cc4ccccc4)C3)ccc2nc1-c1ccccc1` (stereo not drawn) [15R, 5-{7-[(3-benzylpyrrolidin-1-yl)carbonyl]-3-phenyl-quinoxalin-2-yl}pentanoic acid]: the Ki under setting [1] fell in the range of 0.1 to 2 nM.

Compound `O=C(O)CCCCc1nc2cc(C(=O)N[C@H]3CCc4cc(Cl)ccc43)ccc2nc1-c1ccc(F)cc1` [compound 226, 7-[[(5-chloro-2,3-dihydro-1H-inden-1(S)-yl)amino]carbonyl]-3-(4-fluorophenyl)-2-quinoxalinepentanic acid] came in with an inhibition constant Ki under setting [1] of 0.1 to 2 nM.

Regarding `O=C(O)CCCCc1nc2cc(C(=O)N[C@H]3CCOc4ccccc43)ccc2nc1-c1ccccc1` [compound 513, (S)-5-(7-(chroman-4-ylcarbamoyl)-3-phenylquinoxalin-2-yl)pentanoic acid], under “[3H]PGD2 competition, Table B”, the inhibition constant Ki is 0.1 to 2 nM.

Under “[3H]PGD2 competition, Table B”, `O=C(O)CCCCc1nc2cc(C(=O)N3CCN(Cc4ccccc4)CC3)ccc2nc1-c1ccc(Cl)cc1` [compound 555, 5-(7-(4-benzylpiperazine-1-carbonyl)-3-(4-chlorophenyl)quinoxalin-2-yl)pentanoic acid] came in with an inhibition constant (Ki) of 2.1 to 20 nM.

With `COc1ccc(CNC(=O)c2ccc3nc(-c4ccccc4)c(CCCCC(=O)O)nc3c2)cc1` [15BA, 5-{7-[(4-methoxybenzyl)carbamoyl]-3-phenylquinoxalin-2-yl}pentanoic acid], the Ki under setting [1] was in the range of 0.1 to 2 nM.

`O=C(O)CCCCc1nc2cc(C(=O)N3CCC(c4ccccc4)CC3)ccc2nc1-c1ccc(Cl)cc1` [16J, 3-(4-chlorophenyl)-7-[(4-phenyl-1-piperidinyl)carbonyl]-2-quinoxalinepentanoic acid]: the Ki under setting [1] is 2.1 to 20 nM.

With `C[C@H]1CN(c2ccc(F)cc2)CCN1C(=O)c1ccc2nc(-c3ccc(F)cc3)c(CCCCC(=O)O)nc2c1` [compound 497, (S)-5-(3-(4-fluoro-phenyl)-7-(4-(4-fluorophenyl)-2-methylpiperazine-1-carbonyl)quinoxalin-2-yl)pentanoic acid], the Ki ([3H]PGD2 competition, Table B) was 2.1 to 20 nM.

In turn, `C[C@H](NC(=O)c1ccc2nc(-c3ccc(Cl)cc3)c(CCCCC(=O)O)nc2c1)c1cccnc1` [compound 183] displayed a Ki under setting [1] of 2.1 to 20 nM.

As to `O=C(O)CCCCc1nc2cc(C(=O)N3C[C@H]4CC[C@@H](C3)N4Cc3ccccc3)ccc2nc1-c1ccc(Cl)cc1` [compound 704, 5-(7-((1R,5S)-8-benzyl-3,8-diazabicyclo[3.2.1]octane-3-carbonyl)-3-(4-chlorophenyl)quinoxalin-2-yl)pentanoic acid], the Ki ([3H]PGD2 competition, Table B) was 2.1 to 20 nM.

For the compound `N#Cc1ccc(C2CN(C(=O)c3ccc4nc(-c5ccc(F)cc5)c(CCCCC(=O)O)nc4c3)C2)cc1` [compound 246, 7-[[3-(4-cyanophenyl)-1-azetidinyl]carbonyl]-3-(4-fluorophenyl)-2-quinoxalinepentanoic acid], the Ki was 0.1 to 2 nM under setting [1] and 1.9 nM ([3H]PGD2 binding, values in text).
